Test results as given in patent publication US20240269139A1, “COMPOUNDS FOR TARGETED PROTEIN DEGRADATION OF KINASES” (DANA-FARBER CANCER INSTITUTE, INC., priority 2020, published 2024).
Where “and” joins values, the source holds several entries; their conditions need not be identical. Identical values can stand only once. Like-named read-outs stand apart in the source and are kept apart here.

Experiments:
Type in all cases: cell-based
[1] = target: protein kinases (human kinome) (Homo sapiens, UniProt O43683); settings: for logFC: BUB1 (O43683); for logFC BUB1 (O43683): direction down
[2] = target: protein kinases (human kinome) (Homo sapiens, UniProt P53667); settings: LIMK1 (P53667-1)
[3] = target: protein kinases (human kinome) (Homo sapiens, UniProt P07947); settings: YES1 (P07947)
[4] = target: protein kinases (human kinome) (Homo sapiens, UniProt P50613); settings: for logFC CDK7: CDK7 P50613
[5] = target: T1, protein kinases (human kinome) (Homo sapiens, UniProt Q96L34)
T1 sequence (Q96L34 1-752): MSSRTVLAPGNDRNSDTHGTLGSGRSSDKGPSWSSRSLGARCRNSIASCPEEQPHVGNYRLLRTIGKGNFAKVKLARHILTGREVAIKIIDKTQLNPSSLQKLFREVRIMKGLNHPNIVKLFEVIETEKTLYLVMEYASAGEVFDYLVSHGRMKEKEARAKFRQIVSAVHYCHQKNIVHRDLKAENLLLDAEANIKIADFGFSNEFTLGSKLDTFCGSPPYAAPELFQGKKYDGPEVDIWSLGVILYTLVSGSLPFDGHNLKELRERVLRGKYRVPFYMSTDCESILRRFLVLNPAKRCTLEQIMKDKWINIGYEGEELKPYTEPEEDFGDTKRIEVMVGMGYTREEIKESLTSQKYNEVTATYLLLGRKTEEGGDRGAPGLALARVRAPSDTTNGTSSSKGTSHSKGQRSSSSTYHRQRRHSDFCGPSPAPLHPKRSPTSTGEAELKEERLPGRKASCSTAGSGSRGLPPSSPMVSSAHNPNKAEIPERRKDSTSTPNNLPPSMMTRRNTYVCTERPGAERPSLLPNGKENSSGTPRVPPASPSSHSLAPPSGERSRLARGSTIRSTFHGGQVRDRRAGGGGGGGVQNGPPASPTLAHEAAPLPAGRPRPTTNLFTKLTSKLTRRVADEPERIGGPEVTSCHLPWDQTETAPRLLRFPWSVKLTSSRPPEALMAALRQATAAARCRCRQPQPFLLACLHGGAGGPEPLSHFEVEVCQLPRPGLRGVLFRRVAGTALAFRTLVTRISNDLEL

[6] = target: protein kinases (human kinome) (Homo sapiens, UniProt Q00537); settings: for logFC of CDK17: Accession Q00537; for logFC CDK17 (Q00537): direction of change down
[7] = target: protein kinases (human kinome) (Homo sapiens, UniProt P42684); settings: for logFC: ABL2 (P42684) protein abundance, degrader vs DMSO, down
[8] = target: protein kinases (human kinome) (Homo sapiens, UniProt Q16539); settings: for logFC: MAPK14 (Q16539); for logFC MAPK14: MAPK14, accession Q16539, direction of change down
Chain of protein kinases (human kinome) (Homo sapiens, UniProt Q16539) (Q16539 whole entry): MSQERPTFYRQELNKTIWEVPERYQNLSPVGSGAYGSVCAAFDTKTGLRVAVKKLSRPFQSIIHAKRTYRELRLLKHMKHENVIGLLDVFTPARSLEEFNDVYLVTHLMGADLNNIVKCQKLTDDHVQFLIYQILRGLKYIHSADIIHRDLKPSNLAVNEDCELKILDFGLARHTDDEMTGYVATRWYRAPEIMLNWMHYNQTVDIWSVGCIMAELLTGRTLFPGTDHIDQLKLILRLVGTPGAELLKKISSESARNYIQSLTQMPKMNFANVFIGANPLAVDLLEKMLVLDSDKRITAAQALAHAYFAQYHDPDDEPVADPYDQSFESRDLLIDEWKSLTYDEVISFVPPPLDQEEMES

Chain of protein kinases (human kinome) (Homo sapiens, UniProt P42684) (P42684 whole entry): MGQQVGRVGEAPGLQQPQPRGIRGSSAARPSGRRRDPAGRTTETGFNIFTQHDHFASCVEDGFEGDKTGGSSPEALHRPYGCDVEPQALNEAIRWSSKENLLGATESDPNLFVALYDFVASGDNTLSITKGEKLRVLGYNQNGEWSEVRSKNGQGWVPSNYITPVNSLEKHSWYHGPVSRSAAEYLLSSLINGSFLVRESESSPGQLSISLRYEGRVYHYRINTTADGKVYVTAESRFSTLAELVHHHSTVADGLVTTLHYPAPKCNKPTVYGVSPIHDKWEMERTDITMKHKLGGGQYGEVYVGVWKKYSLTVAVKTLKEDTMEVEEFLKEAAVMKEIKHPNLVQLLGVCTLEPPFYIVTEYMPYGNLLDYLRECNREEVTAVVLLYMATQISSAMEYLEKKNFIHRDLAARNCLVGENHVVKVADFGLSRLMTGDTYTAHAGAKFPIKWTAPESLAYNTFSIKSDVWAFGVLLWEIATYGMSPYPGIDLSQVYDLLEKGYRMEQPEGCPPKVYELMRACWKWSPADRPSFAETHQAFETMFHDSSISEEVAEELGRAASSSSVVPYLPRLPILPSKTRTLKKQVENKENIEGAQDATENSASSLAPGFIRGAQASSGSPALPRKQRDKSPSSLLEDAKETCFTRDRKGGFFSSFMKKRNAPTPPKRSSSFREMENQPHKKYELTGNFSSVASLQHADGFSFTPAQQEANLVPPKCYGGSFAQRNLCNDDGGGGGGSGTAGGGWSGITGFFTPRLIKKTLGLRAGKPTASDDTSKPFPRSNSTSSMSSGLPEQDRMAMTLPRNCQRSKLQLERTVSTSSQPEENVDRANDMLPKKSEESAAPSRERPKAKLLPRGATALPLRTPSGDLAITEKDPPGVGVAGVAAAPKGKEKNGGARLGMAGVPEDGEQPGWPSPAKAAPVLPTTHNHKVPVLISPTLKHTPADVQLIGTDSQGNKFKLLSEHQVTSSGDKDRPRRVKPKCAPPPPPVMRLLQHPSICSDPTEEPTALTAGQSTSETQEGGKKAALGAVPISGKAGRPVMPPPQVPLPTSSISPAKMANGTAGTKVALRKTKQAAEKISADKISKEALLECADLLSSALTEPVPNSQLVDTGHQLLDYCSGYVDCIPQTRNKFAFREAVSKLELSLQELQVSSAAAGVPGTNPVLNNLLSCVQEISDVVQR
Chain of protein kinases (human kinome) (Homo sapiens, UniProt Q00537) (Q00537 whole entry): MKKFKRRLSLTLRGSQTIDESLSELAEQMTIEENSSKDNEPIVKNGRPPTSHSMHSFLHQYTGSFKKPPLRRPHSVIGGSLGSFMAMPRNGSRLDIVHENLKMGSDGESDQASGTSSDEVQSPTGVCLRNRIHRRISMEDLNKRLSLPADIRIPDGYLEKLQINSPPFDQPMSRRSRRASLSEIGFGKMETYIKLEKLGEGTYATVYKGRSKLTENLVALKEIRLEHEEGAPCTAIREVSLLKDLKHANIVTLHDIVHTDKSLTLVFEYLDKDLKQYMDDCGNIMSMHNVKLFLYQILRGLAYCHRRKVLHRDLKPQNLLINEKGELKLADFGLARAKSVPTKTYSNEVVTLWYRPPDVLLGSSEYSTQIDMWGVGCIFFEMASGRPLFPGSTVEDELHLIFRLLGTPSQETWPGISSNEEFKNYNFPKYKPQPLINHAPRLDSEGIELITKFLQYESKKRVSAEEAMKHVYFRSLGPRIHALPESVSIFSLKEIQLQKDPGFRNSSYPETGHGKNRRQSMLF
Chain of protein kinases (human kinome) (Homo sapiens, UniProt P50613) (P50613 whole entry): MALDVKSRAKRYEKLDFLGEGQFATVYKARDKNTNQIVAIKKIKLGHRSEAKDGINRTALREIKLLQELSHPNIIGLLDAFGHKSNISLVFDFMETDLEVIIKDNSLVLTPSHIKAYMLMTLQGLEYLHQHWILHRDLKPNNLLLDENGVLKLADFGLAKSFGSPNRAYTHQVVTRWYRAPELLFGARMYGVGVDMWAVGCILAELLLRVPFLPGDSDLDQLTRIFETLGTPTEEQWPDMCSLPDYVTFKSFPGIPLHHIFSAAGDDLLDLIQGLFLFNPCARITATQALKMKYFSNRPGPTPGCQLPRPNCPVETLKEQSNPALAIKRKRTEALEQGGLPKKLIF
Chain of protein kinases (human kinome) (Homo sapiens, UniProt P53667) (P53667 whole entry): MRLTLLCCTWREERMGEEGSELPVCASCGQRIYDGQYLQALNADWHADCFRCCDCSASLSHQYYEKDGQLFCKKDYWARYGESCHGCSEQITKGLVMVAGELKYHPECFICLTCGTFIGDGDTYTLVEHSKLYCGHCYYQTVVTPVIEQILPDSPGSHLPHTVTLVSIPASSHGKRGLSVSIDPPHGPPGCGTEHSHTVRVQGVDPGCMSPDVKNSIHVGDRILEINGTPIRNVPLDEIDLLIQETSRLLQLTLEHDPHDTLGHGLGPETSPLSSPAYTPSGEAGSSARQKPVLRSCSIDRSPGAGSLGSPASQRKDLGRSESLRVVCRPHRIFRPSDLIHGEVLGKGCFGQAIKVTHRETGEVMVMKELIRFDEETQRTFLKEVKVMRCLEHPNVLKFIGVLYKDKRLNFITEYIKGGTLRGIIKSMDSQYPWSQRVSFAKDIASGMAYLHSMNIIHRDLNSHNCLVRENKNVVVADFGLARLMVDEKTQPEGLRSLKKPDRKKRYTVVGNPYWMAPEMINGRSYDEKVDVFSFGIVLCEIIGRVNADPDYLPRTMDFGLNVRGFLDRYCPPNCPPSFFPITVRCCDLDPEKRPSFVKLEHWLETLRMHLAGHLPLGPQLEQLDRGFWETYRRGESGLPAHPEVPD
Chain of protein kinases (human kinome) (Homo sapiens, UniProt O43683) (O43683 whole entry): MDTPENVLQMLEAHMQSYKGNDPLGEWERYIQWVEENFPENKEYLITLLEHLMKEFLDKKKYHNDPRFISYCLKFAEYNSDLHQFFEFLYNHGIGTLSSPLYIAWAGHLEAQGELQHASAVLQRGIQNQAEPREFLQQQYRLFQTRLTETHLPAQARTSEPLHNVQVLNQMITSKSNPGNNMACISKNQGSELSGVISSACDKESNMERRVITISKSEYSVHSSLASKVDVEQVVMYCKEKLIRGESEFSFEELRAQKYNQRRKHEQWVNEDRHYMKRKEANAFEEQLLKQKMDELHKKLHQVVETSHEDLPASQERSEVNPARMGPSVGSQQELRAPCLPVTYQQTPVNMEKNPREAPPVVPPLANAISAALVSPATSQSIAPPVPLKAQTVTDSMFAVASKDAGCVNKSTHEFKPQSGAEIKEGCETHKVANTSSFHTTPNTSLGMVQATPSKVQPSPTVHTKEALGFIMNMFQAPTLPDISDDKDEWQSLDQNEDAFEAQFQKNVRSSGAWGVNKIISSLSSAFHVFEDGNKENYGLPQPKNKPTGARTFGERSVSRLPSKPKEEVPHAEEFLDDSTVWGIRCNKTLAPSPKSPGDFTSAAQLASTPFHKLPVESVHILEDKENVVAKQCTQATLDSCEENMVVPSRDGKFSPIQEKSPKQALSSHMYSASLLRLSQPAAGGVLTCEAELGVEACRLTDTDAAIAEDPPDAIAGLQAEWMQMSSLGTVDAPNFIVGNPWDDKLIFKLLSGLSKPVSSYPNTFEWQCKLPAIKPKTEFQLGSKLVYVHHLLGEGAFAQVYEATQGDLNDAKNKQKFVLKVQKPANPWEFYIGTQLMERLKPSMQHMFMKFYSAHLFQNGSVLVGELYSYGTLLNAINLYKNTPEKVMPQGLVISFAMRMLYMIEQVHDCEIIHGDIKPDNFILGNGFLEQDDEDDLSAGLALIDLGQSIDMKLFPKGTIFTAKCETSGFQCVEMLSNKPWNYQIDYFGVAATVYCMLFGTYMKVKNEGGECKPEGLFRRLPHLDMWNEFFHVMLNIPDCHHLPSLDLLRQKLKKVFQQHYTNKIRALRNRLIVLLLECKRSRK
Chain of protein kinases (human kinome) (Homo sapiens, UniProt P07947) (P07947 whole entry): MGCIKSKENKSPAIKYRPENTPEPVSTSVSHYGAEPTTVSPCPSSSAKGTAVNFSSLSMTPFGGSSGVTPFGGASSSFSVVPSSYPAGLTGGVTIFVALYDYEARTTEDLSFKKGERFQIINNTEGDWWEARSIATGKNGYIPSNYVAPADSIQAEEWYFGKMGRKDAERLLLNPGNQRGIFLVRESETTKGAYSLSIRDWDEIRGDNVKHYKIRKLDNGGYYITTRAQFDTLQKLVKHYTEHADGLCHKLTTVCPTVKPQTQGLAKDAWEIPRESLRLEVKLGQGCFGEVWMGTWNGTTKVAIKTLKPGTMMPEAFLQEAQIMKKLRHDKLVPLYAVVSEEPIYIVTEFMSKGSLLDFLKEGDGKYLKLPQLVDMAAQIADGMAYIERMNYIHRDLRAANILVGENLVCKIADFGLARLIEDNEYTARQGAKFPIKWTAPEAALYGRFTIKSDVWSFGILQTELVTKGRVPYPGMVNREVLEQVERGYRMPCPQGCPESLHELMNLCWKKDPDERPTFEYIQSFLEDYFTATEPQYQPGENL

**Q.** With `CC(C)S(=O)(=O)c1ccccc1Nc1nc(Nc2ccc(N3CCN(CCOCCOCCNC(=O)CNc4cccc5c4C(=O)N(C4CCC(=O)NC4=O)C5=O)CC3)cc2)ncc1Cl` (stereo not drawn) [TL12.186] as the compound, how does the logFC ([1]; experiment wp131) read?
**A.** The logFC was −0.4983.

**Q.** What about the logFC ([1]; experiment wp137) of the same compound?
**A.** Its logFC is −0.4422.

**Q.** What about the “logFC BUB1 (O43683)” value ([1]; Experiment wp131) of the same compound?
**A.** The value was −0.4983.

**Q.** And the “logFC BUB1 (O43683)” value ([1]; Experiment wp137)?
**A.** The value was −0.4422.

**Q.** What about the “logFC LIMK1” value ([2]; direction down, experiment wp131) of the same compound?
**A.** The value was −1.055.

**Q.** And the “logFC LIMK1” value ([2]; direction down, experiment wp137)?
**A.** The value was −0.8734.

**Q.** And the “logFC LIMK1” value ([2]; experiment wp131, down)?
**A.** Its value is −1.055.

**Q.** And the “logFC LIMK1” value ([2]; experiment wp137, down)?
**A.** The value was −0.8734.

**Q.** And the logFC ([3]; experiment wp131)?
**A.** The logFC was −0.5437.

**Q.** And the logFC ([3]; experiment wp131, direction down)?
**A.** Its logFC is −0.5437.

**Q.** And the logFC ([4]; CDK7 (P50613) protein abundance, degrader vs DMSO, down)?
**A.** The logFC was −0.7603 and −0.6447 and −0.7438.

**Q.** What about the “logFC CDK7” value ([4]; experiment wp016) of the same compound?
**A.** The value was −0.7603.

**Q.** And the “logFC CDK7” value ([4]; experiment wp131)?
**A.** The value was −0.6447.

**Q.** What about the “logFC CDK7” value ([4]; experiment wp137) of the same compound?
**A.** The value was −0.7438.

**Q.** And the “logFC MARK4” value ([5]; Accession Q96L34-1, experiment wp137)?
**A.** Its value is −1.298.

**Q.** And the “logFC MARK4 (Q96L34-1)” value ([5]; experiment wp131)?
**A.** The value was −1.829.

**Q.** What about the “logFC MARK4 (Q96L34-1)” value ([5]; experiment wp137) of the same compound?
**A.** Its value is −1.298.

**Q.** What about the “logFC of CDK17” value ([6]; experiment wp016) of the same compound?
**A.** Its value is −0.84.

**Q.** What about the “logFC of CDK17” value ([6]; experiment wp131) of the same compound?
**A.** The value was −0.6165.

**Q.** And the “logFC CDK17 (Q00537)” value ([6]; experiment wp016)?
**A.** Its value is −0.84.

**Q.** And the “logFC CDK17 (Q00537)” value ([6]; experiment wp131)?
**A.** Its value is −0.6165.

**Q.** And the logFC [7]?
**A.** The logFC was −0.803.

**Q.** And the “logFC ABL2 (P42684)” value ([7]; experiment wp137)?
**A.** The value was −0.803.

**Q.** `Cc1ccc(C(=O)Nc2ccc(CN3CCN(CCCOCCOCCOCCNC(=O)COc4cccc5c4C(=O)N(C4CCC(=O)NC4=O)C5=O)CC3)c(C(F)(F)F)c2)cc1C#Cc1cnc2cccnn12` (stereo not drawn) [SB1.G.187] was tested. Which logFC ([3]; experiment wp172) did it give?
**A.** Its logFC is −0.5324.

**Q.** And the logFC ([3]; experiment wp172, direction down)?
**A.** The logFC was −0.5324.

**Q.** What about the “logFC of CDK17” value ([6]; experiment wp172) of the same compound?
**A.** Its value is −0.3562.

**Q.** What about the “logFC CDK17 (Q00537)” value ([6]; experiment wp172) of the same compound?
**A.** Its value is −0.3562.

**Q.** And the “logFC of MAPK14” value ([8]; Accession Q16539, experiment wp172)?
**A.** The value was −0.5198.

**Q.** And the logFC ([8]; experiment wp103)?
**A.** Its logFC is −0.83.

**Q.** What about the logFC ([8]; experiment wp107) of the same compound?
**A.** Its logFC is −0.924.

**Q.** And the logFC ([8]; experiment wp172)?
**A.** Its logFC is −0.5198.

**Q.** And the “logFC MAPK14” value ([8]; experiment wp103)?
**A.** Its value is −0.83.

**Q.** What about the “logFC MAPK14” value ([8]; experiment wp107) of the same compound?
**A.** Its value is −0.924.

**Q.** And the logFC [7]?
**A.** Its logFC is −0.6252 and −0.6455.

**Q.** What about the “logFC ABL2 (P42684)” value ([7]; Experiment wp107) of the same compound?
**A.** The value was −0.6455.

**Q.** What about the “logFC ABL2 (P42684)” value ([7]; experiment wp056) of the same compound?
**A.** Its value is −0.6252.
